Type in all cases: cell-based, human
Experiment [1] has as its system H2030 (KRAS.G12C). Nature of the experiment: Mitochondrial content with Mitotracker Deep Red FM in long term drug tolerant line. Particulars: 30 day treatment, 10 uM; drug-persistent vs parental H2030.
The test system of experiment [2] is GENEVA cell pool of cell lines. Nature of the experiment: GENEVA cell pool drug sensitivity by relative cell counts from single-cell RNA sequencing. As to conditions: pre/post drug treatment relative cell counts from GENEVA pools. The text has this:
This example is directed at discovery of genetic drivers of sensitivity to a drug compound by way of simultaneous inference of phenotype from a GENEVA cell pool. Long-duration growth balanced cell pools were created and subjected to drug treatment. After assignment to patient of origin and drug treatment condition using genetic demultiplexing using the method as described in Example 5 and sample hashing demultiplexing as described in Example 6, datasets were obtained with discrete numbers of cells in each drug treatment condition as evidenced in FIG. 2A,B,C,D,E,F. The relative number of viable cells remaining in each drug treatment condition for each cell type was counted and this drug sensitivity information was used as the response variable for a linear model. […]
The number of cells in each drug condition were counted according to the origin cell type. […]
fitness for cell type Ci against Drug Dx based on proportional representation was calculated as: […]
For each drug or vehicle Dx, the total number of cells was counted in each condition, the geometric mean of the total cell counts was calculated, and the total number of cells in each condition was divided by the geometric mean of the cell counts to obtain a normalization ratio. […]
For each of these fitness calculations, the relative fitness was calculated as: […]

The test system of experiment [3] is KRAS.G12C cell line H2030. Nature of the experiment: Lipid peroxidation by KRAS inhibitors in KRAS.G12C line. On the procedure:
FIG. 7B plots gene expression of anti-ferroptotic genes for each cell line in response to increasing ARS1620 dosage.
Using a lipid peroxidation live cell probe, lipid peroxidation—one of the hallmark phenotypes of ferroptosis—was measured in response to ARS-1620 treatment.

Experiment [4] has as its system H2030 (KRAS.G12C) cells. Nature of the experiment: Seahorse assay measuring oxygen consumption. As to conditions: 2 h after treatment.
The test system of experiment [5] is KRAS.G12C lines in GENEVA pools. As to the kind of experiment: GENEVA pool transcriptome changes in cells surviving drug treatment. On the procedure: Long-time course GENEVA pools were created to understand how ARS1620 achieved durable tumor regression in human cells. A seven day drug treatment regimen was conducted and transcriptome changes in surviving cells were analyzed.
For each cell line, single cell datasets were divided into two sub-datasets: vehicle treated and drug treated. Differential expression was calculated between two single-cell datasets using a two-sample t-test. A differential expression score was obtained for each gene from two-sample t-test output. All cell lines were repeated until done and all differential expression scores for genes were saved into aggregated differential expression tables by cell line. Cells were grouped according to their phenotypic sensitivity to the tested compound. For tested compounds, the genetic driver of the compound sensitivity was discovered as described previously herein. Using the genetic driver, cell lines were classified by presence or absence of the driver into two categories, sensitive vs non-sensitive. The differential expression matrix was grouped into sensitive and insensitive cell lines. z-scores for genes within each cell line were calculated, genes were grouped by gene sets from biological geneset databases curated from scientific literature, and two sample T-tests with grouped z-scores were performed. First, all differential expression scores were normalized to the same scale by z-score within each cell line. […] Summary statistics from each gene test were saved and the z-score difference was calculated. The biological mechanism of action of the molecule of interest was determined by rank ordering the median z score results from each geneset to determine the relative upregulation or downregulation of genesets in response to the compound.
Among this group of genes were FTH1 and FTL, the two components of the Ferritin Complex, which is responsible for sequestration of labile free iron. Using a lipid peroxidation live cell probe, lipid peroxidation—one of the hallmark phenotypes of ferroptosis—was measured in response to ARS-1620 treatment.

Structures are written as SMILES.

Consider `C=CC(=O)N1CCN(c2ncnc3c(F)c(-c4c(O)cccc4F)c(Cl)cc23)CC1` [ARS1620], for which the “mitochondrial content after long term treatment” value in experiment [1] is given as “mitochondria are significantly ablated”. Further, in experiment [2], the “relative sensitivity of individual cell types (most sensitive cell lines)” value is listed as “KRAS.G12C mutant harboring”. Besides, the lipid peroxidation entry in experiment [3] is recorded as “increased lipid peroxidation”. Moreover, in experiment [4], the “oxygen consumption / mitochondrial respiration” value is on record as “significant difference in functional oxygen consumption”. In addition, the “percentage of mitochondrial reads in surviving cell subpopulations” value in experiment [5] (after drug treatment, within each cell line of the pool) is given as “significantly lower percentage of mitochondrial reads relative to overall reads”. Besides, the “expression of anti-ferroptotic genes in surviving cells” value in experiment [5] (long-term treatment, across KRAS.G12C lines) is “Consistently upregulated genes across cell lines were found to be involved in an anti-ferroptotic response mechanism”. The “expression of mitochondrially encoded genes in surviving cells” value in experiment [5] (seven day drug treatment regimen) is “Mitochondrially encoded genes were downregulated”.

The values above are taken from patent publication US20250003953A1, “Methods and Model Systems for Assessing Therapeutic Properties of Candidate Agents and Related Computer Readable Media and Systems” (The Regents of the University of California, priority 2021, published 2025).
